Data from patent US20110015226A1, “Treatment of Energy Utilization Disease” (SUMMIT CORPORATION PLC, priority 2008, published 2011).
Where two headings read alike, the source gives them in different places.

Experiments:
Format in all cases: biochemical
α-D-glucosidase (Yeast) = target: T1, α-D-glucosidase (Yeast) (Saccharomyces cerevisiae, UniProt P53341); experiment: Glycosidase inhibition: α-D-glucosidase (Yeast); details: compounds tested at 0.8 mM
T1 construct: purchased Sigma
From the text: (§1) The results tabulated below were obtained using commercially available glycosidases and p-nitrophenyl-substrates using standard methods described for example by Watson et al (1997) Phytochemistry 46 255-259. All enzymes and substrates were bought from Sigma. Enzyme and substrate solutions were made using sodium phosphate buffers at the pH optima values. The enzymes used were α-D-glucosidase Saccharomyces cerevisiae, Bacillus stearothermophilus, Oryzae sativa), β-D-glucosidase (Almond), α-D-mannosidase (Jack bean), α-D-galactosidase (Green coffee beans), β-D-galactosidase (Bovine liver), α-L-fucosidase (Bovine kidney), N-acetyl-β-D-glucosaminidase (Bovine kidney, Jack bean, Aspergillus oryzae), Naringinase (Penicillium decumbens) and amyloglucosidase (Aspergillus niger). All enzymes were used with the appropriate p-nitrophenyl substrates (5 mM). Amyloglucosidase activity was measured using amylopectin (0.1%) (Merck) mixed with sodium phosphate buffer, pH 4.5 in a glass bottle, and healed in a boiling water bath for 20 minutes to dissolve with released glucose measured using ‘Trinder’ glucose detection solution (Sigma).
(§2) All enzymes and para-nitrophenyl substrates were purchased from Sigma, with the exception of beta-mannosidase which came from Megazyme. Enzymes were assayed at 27° C. in 0.1M citric acid/0.2M disodium hydrogen phosphate buffers at the optimum pH for the enzyme. The incubation mixture consisted of 10 μl enzyme solution, 10 μl of 1 mg/ml aqueous solution of extract and 50 μl of the appropriate 5 mM para-nitrophenyl substrate made up in buffer at the optimum pH for the enzyme. The reactions were stopped by addition of 70 μl 0.4M glycine (pH 10.4) during the exponential phase of the reaction, which had been determined at the beginning using uninhibited assays in which water replaced inhibitor. Final absorbances were read at 405 nm using a Versamax microplate reader (Molecular Devices). Assays were carried out in triplicate, and the values given are means of the three replicates per assay. (See Watson, A. A., Nash, R. J., Wormald, M. R., Harvey, D. J., Dealler, S., Lees, E., Asano, N., Kizu, H., Kato, A., Griffiths, R. C., Cairns, A. J. and Fleet, G. W. J. (1997). Glycosidase-inhibiting pyrrolidine alkaloids from Hyacinthoides non-scripta. Phytochemistry 46 (2): 255-259.)

[1] = target: α-D-glucosidase (Bacillus) (Geobacillus stearothermophilus, UniProt A0ACH1E9U3); experiment: Glycosidase inhibition: α-D-glucosidase (Bacillus); details: compounds tested at 0.8 mM
From the text: as §1, §2

[2] = target: T2, N-acetyl-β-D-glucosaminidase (A. oryzae) (Aspergillus oryzae, UniProt Q8J2T0); experiment: Glycosidase inhibition: N-acetyl-β-D-glucosaminidase (A. oryzae); details: compounds tested at 0.8 mM
T2 construct: purchased Sigma
From the text: as §1, §2

[3] = target: T3, β-Glucuronidase Bovine liver (Bos taurus, UniProt A3KMY8); experiment: Glycosidase inhibition: β-Glucuronidase Bovine liver; details: for inhibition at 800 µM: compounds tested at 0.8 mM;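 for all read-outs here: bovine liver β-glucuronidase acting on p-nitrophenyl β-D-glucuronide substrate in citric acid/disodium hydrogen phosphate buffer, pH 5.0, 27 °C, mean of triplicate runs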
T3 construct: The assay involved the use of Bovine liver β-glucuronidase; purchased Sigma; host or cells: bovine liver
T3 sequence (A3KMY8 1-652): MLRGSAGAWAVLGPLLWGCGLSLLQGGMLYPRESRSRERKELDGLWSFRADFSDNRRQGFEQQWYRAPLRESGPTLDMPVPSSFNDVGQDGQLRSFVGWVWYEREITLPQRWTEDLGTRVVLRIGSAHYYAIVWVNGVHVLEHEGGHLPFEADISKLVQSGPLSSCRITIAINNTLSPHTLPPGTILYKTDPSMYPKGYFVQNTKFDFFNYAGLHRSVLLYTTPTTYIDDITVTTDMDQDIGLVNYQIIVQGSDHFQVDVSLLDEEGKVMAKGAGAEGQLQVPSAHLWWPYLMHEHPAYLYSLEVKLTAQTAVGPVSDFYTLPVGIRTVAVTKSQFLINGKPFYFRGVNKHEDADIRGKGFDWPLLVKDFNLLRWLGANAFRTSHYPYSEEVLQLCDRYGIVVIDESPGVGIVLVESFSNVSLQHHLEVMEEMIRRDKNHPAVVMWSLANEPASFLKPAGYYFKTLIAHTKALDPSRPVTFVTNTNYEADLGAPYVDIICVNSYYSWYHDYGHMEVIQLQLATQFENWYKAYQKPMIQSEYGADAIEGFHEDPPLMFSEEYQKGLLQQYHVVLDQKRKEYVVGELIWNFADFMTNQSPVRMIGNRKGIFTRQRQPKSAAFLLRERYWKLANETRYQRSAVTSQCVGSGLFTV

[4] = test system: rabbit digestive disaccharidases; experiment: Rabbit digestive disaccharidases (summary statement); details: at 0.8 mM
Experimental: Sucrose (8.3 mM), maltose (5 mM) and isomaltose (6.3 mM) substrates were made using 0.2 M Macllvaine (citrate-phosphate) buffer, pH 6.0. The glucose detection reagent was prepared according to the supplier's instructions (Megazyme Ltd). Linearity of the timecourse of the reaction between the glucose detection reagent and glucose was tested using a series of glucose dilutions.
The method for preparation of mammalian small intestine mucosal disaccharidases was based on Griffiths (1998), omitting ammonium sulphate fractionation steps. The small intestine was dissected out of a female wild rabbit, and opened longitudinally using a scalpel. The mucosal layer was scraped off using the edge of a clean microscope slide, and placed into 3 ml of dH2O. The mucosal layer suspension was centrifuged at around 1000 rpm for 30 seconds to sediment tissue debris. The supernatant ([…]) was removed, and centrifuged again at 3500 rcf for 1 minute to remove fine particulates from suspension. The supernatant was diluted to give 0.2-0.25 mg/ml protein and stored at −30° C.
Enzyme assays were carried out using 5-15 μl of enzyme preparation, 5 μl of test compound (or dH2O for controls) and 15-25 μl of substrate solution. Reactions were covered using a sheet of plate sealing film, and incubated at 37° C. for 60 minutes. Glucose (from disaccharide hydrolysis) was quantified by adding 200 μl of glucose detection reagent and incubating the reactions for a further twenty-five minutes. Absorbance was measured at 510 nm against control blanks.

[5] = test system: β-D-galactosidase Bovine liver; experiment: Glycosidase inhibition: β-D-galactosidase Bovine liver; details: compounds tested at 0.8 mM
From the text: as §1, §2

[6] = pH 5.0, 27° C., p-nitrophenyl β-D-glucuronide, read-out: IC50, β-Glucuronidase Bovine liver
[7] = read-out: IC50 against mammalian glucuronidase

T2 sequence (Q8J2T0 97-600): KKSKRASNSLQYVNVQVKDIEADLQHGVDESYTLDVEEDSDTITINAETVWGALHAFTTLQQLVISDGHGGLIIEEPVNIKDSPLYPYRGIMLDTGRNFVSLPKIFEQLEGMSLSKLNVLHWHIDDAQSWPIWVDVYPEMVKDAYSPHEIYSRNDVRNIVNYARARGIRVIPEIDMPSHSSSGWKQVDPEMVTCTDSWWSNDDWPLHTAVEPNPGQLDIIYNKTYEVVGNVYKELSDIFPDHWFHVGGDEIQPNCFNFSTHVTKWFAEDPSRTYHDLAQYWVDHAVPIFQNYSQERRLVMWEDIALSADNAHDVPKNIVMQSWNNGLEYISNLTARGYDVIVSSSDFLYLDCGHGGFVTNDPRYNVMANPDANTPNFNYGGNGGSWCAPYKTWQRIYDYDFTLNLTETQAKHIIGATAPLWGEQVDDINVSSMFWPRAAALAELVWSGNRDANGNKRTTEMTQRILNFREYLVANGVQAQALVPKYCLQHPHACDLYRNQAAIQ
Sequence of α-D-glucosidase (Bacillus) (A0ACH1E9U3 entry or part of it): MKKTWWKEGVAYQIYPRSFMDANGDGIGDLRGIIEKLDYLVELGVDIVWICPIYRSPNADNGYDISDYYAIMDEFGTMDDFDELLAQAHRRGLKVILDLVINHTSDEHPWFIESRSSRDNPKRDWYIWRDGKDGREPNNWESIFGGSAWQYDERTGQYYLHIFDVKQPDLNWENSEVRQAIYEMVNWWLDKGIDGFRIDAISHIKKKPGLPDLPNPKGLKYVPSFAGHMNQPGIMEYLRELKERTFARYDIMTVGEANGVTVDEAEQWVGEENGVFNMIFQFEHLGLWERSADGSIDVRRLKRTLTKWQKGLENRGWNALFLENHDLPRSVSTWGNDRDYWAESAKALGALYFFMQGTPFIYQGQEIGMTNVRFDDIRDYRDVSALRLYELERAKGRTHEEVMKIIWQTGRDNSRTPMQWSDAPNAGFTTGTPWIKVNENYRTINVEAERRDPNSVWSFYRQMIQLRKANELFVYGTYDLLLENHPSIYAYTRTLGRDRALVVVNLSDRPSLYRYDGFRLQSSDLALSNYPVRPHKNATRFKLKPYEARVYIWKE
T1 sequence (P53341 whole entry): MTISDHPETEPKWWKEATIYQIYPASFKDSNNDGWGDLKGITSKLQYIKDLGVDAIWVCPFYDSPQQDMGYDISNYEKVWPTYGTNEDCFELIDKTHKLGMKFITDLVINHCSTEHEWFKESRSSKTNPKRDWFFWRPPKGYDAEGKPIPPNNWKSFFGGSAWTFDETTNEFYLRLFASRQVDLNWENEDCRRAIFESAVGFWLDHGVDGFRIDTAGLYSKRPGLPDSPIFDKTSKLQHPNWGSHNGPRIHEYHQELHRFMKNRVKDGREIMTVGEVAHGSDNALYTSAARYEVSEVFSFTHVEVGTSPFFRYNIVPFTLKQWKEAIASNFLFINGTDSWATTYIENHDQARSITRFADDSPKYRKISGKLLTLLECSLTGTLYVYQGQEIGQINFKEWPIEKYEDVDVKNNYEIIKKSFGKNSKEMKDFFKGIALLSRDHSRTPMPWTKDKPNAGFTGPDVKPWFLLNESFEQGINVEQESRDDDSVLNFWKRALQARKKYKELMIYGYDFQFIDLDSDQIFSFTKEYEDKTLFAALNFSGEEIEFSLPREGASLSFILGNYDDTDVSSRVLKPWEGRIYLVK

Row | SMILES | inhibition at 800 µM (α-D-glucosidase (Yeast)) [%] | inhibition at 800 µM [1] [%] | inhibition at 800 µM [2] [%] | IC50 [3, 6] [µM] | inhibition of the disaccharidases [4] | IC50 [3, 7] [µM] | % inhibition, β-D-galactosidase Bovine liver [5] | inhibition at 800 µM [3] [%]
1 | CCCCOC(=O)[C@@H]1[C@@H](O)[C@H](O)[C@@H](O)CN1CCCC [Compound T2, (2S,3R,4R,5S)-Butyl 1-butyl-3,4,5-trihydroxypiperidine-2-carboxylate] | < 50 | < 50 | < 50 | 280 | no inhibition |  |  | 
2 | O=C(O)CCN1C[C@H](O)[C@@H](O)[C@H](O)[C@H]1CO [Compound T1] | < 50 | < 50 | < 50 |  |  | 50 |  | 
3 | O=C(O)CN1[C@H](CO)[C@@H](O)[C@H](O)[C@H]1CO [Compound S2, 2-((2R,3R,4R,5R)-3,4-Dihydroxy-2,5-bis(hydroxymethyl)pyrrolidin-1-yl)acetic acid] | < 50 | 92.7 | < 50 | 507 | no inhibition |  | 60% | 
4 | OC[C@H]1NC[C@H](O)[C@@H](O)[C@@H]1O [DNJ, 1-deoxynojirimycin, reference compound] | 36 | 100 | < 10 |  |  |  | NI (NI = no inhibition) | < 10
5 | O=C(O)[C@H]1NC[C@H](O)[C@@H](O)[C@@H]1O [Compound G2, 2S,3R,4R,5S-trihydroxypiperidine-2-carboxylic acid] | < 10 | 49 | < 10 |  | no inhibition | 107 | NI (NI = no inhibition) | 90
